# Test results from patent publication US11161845B2, “Pyrrolopyridine-aniline compounds for treatment of dermal disorders” (Nflection Therapeutics, Inc., priority 2017, dated 2021).
# Test system: HCT116 cells
# Assay: HCT116 (Kras) GI50 cell-based assay (Cell Titer-Glo)
# Conditions: Homo sapiens, HCT-116; 72 hours; read-out: Assay 3: HCT116 (Kras) GI50
# Protocol: Alternatively, the following procedure can be used to measure cell-based activity. Test compounds were dissolved in DMSO in 10 mM stock. Cell Titer-Glo® 2.0 Luminescent cell viability assay reagent was purchased from Promega (Madison, Wis.). A375 and HCT116 cell lines were purchased from American Type Culture Collection (Manassas, Va.). For A375 cells, cell culture media was DMEM+10% FBS. For HCT116 cells, cell culture media was McCoy's 5A+10% FBS. All media were supplemented with 100 μg/mL of penicillin, and 100 μg/mL of streptomycin. Cultures were maintained at 37° C. in a humidified atmosphere of 5% CO2 and 95% air.
# Test compounds were diluted in DMSO solution with 10-dose and 3-fold dilutions in a source plate starting at 10 mM. 25 nL of each test compound was delivered from the source plate to each well of the 384-well cell culture plates (T=Final) by Echo 550. 25 μL of culture medium containing 2000 of A375 or HCT116 cells was added to each of the wells in duplicates of the cell culture plates (T=0 and T=Final). 25 μL of Cell Titer Glo 2.0 reagent was added to each well of cell culture plate (T=0). The contents were mixed on an orbital shaker for 2 min and incubated at room temperature for 15 min to stabilize luminescent signal. Luminescence was recorded by Envision 2104 Multilabel Reader (PerkinElmer, Santa Clara, Calif.). The number of viable cells in culture was determined based on quantitation of the ATP present in each culture well. The cells in cell culture plate (T=Final) were incubated with the compounds at 37° C., 5% CO2 for 72 hours. 25 μL of Cell Titer Glo 2.0 reagent was added to each well. The contents were mixed on an orbital shaker for 2 min and incubated at room temperature for 15 min to stabilize luminescent signal. Luminescence was recorded by Envision 2104 Multilabel Reader (PerkinElmer, Santa Clara, Calif.). The number of viable cells in culture was determined based on quantitation of the ATP present in each culture well. The G150 curves were plotted using the GraphPad Prism 4 program based on a sigmoidal dose-response equation Y=Bottom+(Top−Bottom)/(1+10^((Log EC50−X)*HillSlope)). All parameters in the equation were calculated by GraphPad Prism 4 program. […] Accordingly, GI50 is the value of 10^X, where X was calculated by the Curve Fitting Equation when Y=50 using Excel.
smiles,measurement,value
"Cn1c(Nc2ccc(I)cc2F)c(C(=O)NOCCO)c2cccnc21 [Example 2, 2-((2-Fluoro-4-iodophenyl)amino)—N-(2-hydroxyethoxy)-1-methyl-1H-pyrrolo[2,3-b]pyridine-3-carboxamide]",GI50,196 nM
